Measured values from paper PMC7598271, “In Vitro Studies to Define the Cell-Surface and Intracellular Targets of Polyarginine-Conjugated Sodium Borocaptate as a Potential Delivery Agent for Boron Neutron Capture Therapy” (Cells, 2020).

What was measured:
eRF3 = target: T1, eRF3 (Homo sapiens, UniProt P15170); assay: Immunoprecipitation with anti-BSH antibody from U251 cell lysate, Western blotting; format: binding; conditions: lysate with or without 10 µg/mL RNase A, 1 h at room temperature (Figure 6B)
T1 construct: we performed immunoprecipitation from the pre-cleaned lysate of U251 cells; endogenous in cells; host or cells: U251 glioma cell lysate
T1 sequence (P15170 whole entry): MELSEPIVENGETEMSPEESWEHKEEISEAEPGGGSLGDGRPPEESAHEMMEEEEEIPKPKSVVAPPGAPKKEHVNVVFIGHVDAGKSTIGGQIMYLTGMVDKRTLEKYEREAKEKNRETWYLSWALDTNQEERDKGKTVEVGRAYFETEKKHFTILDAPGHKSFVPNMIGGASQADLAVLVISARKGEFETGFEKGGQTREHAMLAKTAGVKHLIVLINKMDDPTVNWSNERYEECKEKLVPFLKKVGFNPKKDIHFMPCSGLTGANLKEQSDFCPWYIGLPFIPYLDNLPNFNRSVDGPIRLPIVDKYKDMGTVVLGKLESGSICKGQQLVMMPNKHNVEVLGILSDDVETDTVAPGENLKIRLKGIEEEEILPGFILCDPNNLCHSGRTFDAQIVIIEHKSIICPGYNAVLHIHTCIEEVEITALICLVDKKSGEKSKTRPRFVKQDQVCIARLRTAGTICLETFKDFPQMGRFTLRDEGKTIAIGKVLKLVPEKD
Procedure: (§1) Western blotting was performed as previously described. The cells were lysed in cell lysis buffer (20 mM Tris-HCl (pH =7.5), 150 mM NaCl, 1 mM EDTA, 1 mM Na2EGTA (ethylene glycol-bis(β-aminoethyl ether)-N,N,N′,N′-tetraacetic acid), 0.5% Triton X-100) supplemented with cOmplete Protease Inhibitor Cocktail (Sigma-Aldrich Co. LLC, St. Louis, MO, USA), and PhosSTOP phosphatase inhibitor cocktail (Sigma-Aldrich Co. LLC, St. Louis, MO, USA). After sonication and centrifugation (15,000 rpm, 4 °C, 10 min), the protein concentration of the supernatants was measured using a bicinchoninic acid (BCA) protein assay (Thermo Fisher Scientific, Inc., Waltham, MA, USA). The supernatants were added to 1/3 volume of 4x SDS sample buffer (240 mM Tris-HCl (pH=6.8), 8% sodium dodecyl sulfate (SDS), 40% glycerol, 0.1% bromophenol blue, 20% 2-mercaptoethanol) and boiled at 95 °C for 5 min. Then, the samples were applied to SDS-polyacrylamide gel electrophoresis (PAGE) and transferred to polyvinylidene fluoride (PVDF) membrane (Immobilon-P, 0.45 µm) (MilliporeSigma, Burlington, MA, USA). The membranes were blocked with 0.5% skim milk (nacalai tesque, Kyoto, Japan) in tris-buffered saline with tween20 (TBST, 137 mM NaCl, 2.68 mM KCl, 25 mM Tris (pH=7.4), 0.1% Tween20) and incubated with primary antibodies for 16 h at 4 °C and secondary antibodies for 1 h at room temperature. The signals were developed with Clarity Western enhanced chemiluminescence (ECL) Substrate (Bio-Rad Laboratories, Inc., Hercules, CA, USA) and detected with a ChemiDoc imaging system (Bio-Rad Laboratories, Inc., Hercules, CA, USA).
(§2) Immunoprecipitation was performed as previously described with modification. Briefly, the cells were lysed in cell lysis buffer supplemented with cOmplete Protease Inhibitor Cocktail and PhosSTOP phosphatase inhibitor cocktail. The lysate was passed through a 23G needle syringe 10 times and centrifuged at 15,000 rpm, at 4 °C, for 10 min. […]

eIF4G = target: T2, eIF4G (Homo sapiens, UniProt Q04637); assay: as above; format: binding
T2 construct: we performed immunoprecipitation from the pre-cleaned lysate of U251 cells; endogenous in cells; host or cells: U251 (U251MG) glioma cells
T2 sequence (Q04637 whole entry): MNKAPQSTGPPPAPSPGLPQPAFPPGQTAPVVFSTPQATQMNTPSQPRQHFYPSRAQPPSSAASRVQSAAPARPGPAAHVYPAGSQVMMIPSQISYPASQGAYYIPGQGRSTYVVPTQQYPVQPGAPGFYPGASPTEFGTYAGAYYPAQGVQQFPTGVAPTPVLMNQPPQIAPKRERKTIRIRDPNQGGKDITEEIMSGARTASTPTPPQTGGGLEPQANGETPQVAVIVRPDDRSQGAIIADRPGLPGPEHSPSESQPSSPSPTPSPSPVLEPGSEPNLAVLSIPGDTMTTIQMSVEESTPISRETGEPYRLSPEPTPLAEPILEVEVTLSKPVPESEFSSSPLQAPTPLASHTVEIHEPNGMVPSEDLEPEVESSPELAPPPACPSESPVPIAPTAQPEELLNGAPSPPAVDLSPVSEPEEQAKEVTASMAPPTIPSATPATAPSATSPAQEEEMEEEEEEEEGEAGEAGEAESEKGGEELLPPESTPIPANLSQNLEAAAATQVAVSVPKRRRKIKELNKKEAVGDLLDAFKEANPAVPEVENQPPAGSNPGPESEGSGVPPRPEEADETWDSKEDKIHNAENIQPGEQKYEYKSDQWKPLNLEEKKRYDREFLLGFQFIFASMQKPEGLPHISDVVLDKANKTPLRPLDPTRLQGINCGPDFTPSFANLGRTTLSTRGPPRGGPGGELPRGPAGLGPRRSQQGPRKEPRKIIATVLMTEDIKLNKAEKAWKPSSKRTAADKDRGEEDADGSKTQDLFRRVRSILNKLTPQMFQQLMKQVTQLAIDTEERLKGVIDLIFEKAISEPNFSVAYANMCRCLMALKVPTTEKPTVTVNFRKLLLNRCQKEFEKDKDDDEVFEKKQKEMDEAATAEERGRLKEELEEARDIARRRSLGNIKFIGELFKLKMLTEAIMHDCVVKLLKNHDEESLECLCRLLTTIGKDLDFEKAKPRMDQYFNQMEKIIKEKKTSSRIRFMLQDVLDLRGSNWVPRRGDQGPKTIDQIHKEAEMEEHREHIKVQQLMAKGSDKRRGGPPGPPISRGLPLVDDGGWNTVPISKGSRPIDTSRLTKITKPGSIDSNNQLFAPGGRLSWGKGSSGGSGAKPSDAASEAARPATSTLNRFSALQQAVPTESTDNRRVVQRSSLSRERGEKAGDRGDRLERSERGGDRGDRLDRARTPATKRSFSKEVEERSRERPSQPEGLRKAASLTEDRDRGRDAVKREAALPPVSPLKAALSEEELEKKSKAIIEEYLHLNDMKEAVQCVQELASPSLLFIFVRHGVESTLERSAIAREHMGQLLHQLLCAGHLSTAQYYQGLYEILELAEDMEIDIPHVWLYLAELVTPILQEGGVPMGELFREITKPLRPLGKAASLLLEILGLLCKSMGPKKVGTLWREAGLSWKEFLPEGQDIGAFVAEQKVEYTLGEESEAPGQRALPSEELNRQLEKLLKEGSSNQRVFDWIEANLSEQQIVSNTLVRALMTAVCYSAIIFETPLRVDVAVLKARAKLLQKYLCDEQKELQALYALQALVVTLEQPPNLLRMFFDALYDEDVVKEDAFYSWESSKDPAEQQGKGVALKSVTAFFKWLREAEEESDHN
Procedure: as §1, §2

CD44 protein = assay: Immunoprecipitation with anti-BSH antibody and Western blotting for CD44; format: binding, human; conditions: MDA-MB-231 cell lysate 2000 µg/mL, compound 20 µM, 1 h at 4 °C, anti-BSH antibody 10 µg/mL, Western blotting (Figure 3A)
Procedure: as §1, with “MA, USA). […] The signals” for “MA, USA). The membranes were blocked with 0.5% skim milk (nacalai tesque, Kyoto, Japan) in tris-buffered saline with tween20 (TBST, 137 mM NaCl, 2.68 mM KCl, 25 mM Tris (pH=7.4), 0.1% Tween20) and incubated with primary antibodies for 16 h at 4 °C and secondary antibodies for 1 h at room temperature. The signals”, “CA, USA). […]” for “CA, USA).”

U251MG cells = assay: Immunofluorescent analysis of cellular uptake with anti-BSH antibody; format: cell-based, human; conditions: U251 glioma cells, 20 µM, immunofluorescent analysis (Figure 1B)
Procedure: Human glioma cell lines U87MG and U251MG, human breast cancer cell lines MCF7 and MDA-MB-231, human pancreatic cancer cell lines CFPAC1 and PANC1, and murine mammary gland cell line NMuMG, were cultured in Dulbecco’s modified Eagle’s medium (DMEM) (FUJIFILM Wako Pure Chemical Corporation, Osaka, Japan) with 10% fetal bovine serum (FBS) (Corning Inc., Corning, NY, USA) and penicillin/streptomycin/L-glutamine (Fujifilm-Wako, Japan) as previously described. U87MG, MDA-MB-231, CFPAC-1, PANC-1, and NMuMG were obtained from the American Type Culture Collection (ATCC, Manassas, VA, USA) (catalogue number: HTB-14, HTB-26, CRL-1918, CRL-1469, and CRL-1636, respectively). U251MG and MCF7 were obtained from the Japanese Collection of Research Bioresources Cell Bank (JCRB, Ibaraki, Japan) (catalogue number: IFO50288 and JCRB0134, respectively).
(§3) The immunostaining of cells was performed as previously described with brief modifications. The cells were fixed with 4% paraformaldehyde (PFA) for 15 min, permeated with 0.05% Triton X-100 for 10 min, and blocked with 5% goat serum. Then, the samples were incubated with primary antibodies for 16 h at 4 °C and secondary antibodies for 1 h at room temperature. Primary antibodies against CD44 were purchased from Abcam (Cambridge, UK) (ab157107). Antibodies against the BSH molecule (clone#: 36-2H or 38-5C) were developed by ITM Co., Ltd. (Nagano, Japan). […]

eIF4A = target: T3, eIF4A (Homo sapiens, UniProt P60842); assay: Immunoprecipitation with anti-BSH antibody from U251 cell lysate, Western blotting; format: binding; conditions: lysate with or without 10 µg/mL RNase A, 1 h at room temperature (Figure 6B)
T3 construct: we performed immunoprecipitation from the pre-cleaned lysate of U251 cells; endogenous in cells; host or cells: U251 glioma cell lysate
T3 sequence (P60842 whole entry): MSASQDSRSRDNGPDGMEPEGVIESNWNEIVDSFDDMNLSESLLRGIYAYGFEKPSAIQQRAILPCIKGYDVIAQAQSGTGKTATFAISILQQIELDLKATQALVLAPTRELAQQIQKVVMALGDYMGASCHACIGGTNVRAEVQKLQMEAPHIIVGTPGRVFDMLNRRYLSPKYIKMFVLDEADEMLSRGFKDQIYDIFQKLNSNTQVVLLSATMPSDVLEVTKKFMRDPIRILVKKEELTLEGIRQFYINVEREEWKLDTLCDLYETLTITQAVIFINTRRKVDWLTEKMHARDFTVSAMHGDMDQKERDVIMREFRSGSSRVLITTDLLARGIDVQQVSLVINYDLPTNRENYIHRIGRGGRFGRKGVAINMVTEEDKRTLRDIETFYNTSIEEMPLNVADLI
Procedure: as §1, with “MA, USA). […] The signals” for “MA, USA). The membranes were blocked with 0.5% skim milk (nacalai tesque, Kyoto, Japan) in tris-buffered saline with tween20 (TBST, 137 mM NaCl, 2.68 mM KCl, 25 mM Tris (pH=7.4), 0.1% Tween20) and incubated with primary antibodies for 16 h at 4 °C and secondary antibodies for 1 h at room temperature. The signals”, “CA, USA). […]” for “CA, USA).”

[1] = target: T4, poly(A)-binding protein 1 (PABP1) (Homo sapiens, UniProt P11940); assay: as above
T4 construct: we performed immunoprecipitation from the pre-cleaned lysate of U251 cells; endogenous in cells; host or cells: U251 (U251MG) glioma cells
T4 sequence (P11940 whole entry): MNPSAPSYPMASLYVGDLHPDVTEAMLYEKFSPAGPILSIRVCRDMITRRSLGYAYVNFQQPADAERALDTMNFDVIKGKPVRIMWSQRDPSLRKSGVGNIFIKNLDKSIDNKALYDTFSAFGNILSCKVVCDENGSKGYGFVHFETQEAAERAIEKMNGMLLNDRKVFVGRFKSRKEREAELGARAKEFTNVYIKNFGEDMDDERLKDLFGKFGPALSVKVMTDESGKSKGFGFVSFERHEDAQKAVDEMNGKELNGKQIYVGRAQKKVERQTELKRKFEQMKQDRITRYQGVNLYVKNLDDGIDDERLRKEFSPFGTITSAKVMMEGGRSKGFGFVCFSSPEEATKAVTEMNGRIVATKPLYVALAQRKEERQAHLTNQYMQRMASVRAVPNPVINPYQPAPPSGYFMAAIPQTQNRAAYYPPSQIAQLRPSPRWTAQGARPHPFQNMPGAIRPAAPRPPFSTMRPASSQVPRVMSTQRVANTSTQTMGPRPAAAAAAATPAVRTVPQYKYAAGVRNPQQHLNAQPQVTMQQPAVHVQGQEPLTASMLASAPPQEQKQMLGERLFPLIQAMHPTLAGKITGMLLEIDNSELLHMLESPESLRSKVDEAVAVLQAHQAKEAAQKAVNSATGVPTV
Procedure: as §1, §2

[2] = test system: NMuMG-GFP, NMuMG-HRas/shp53 and NMuMG-HRas/shp53/YAP1 cells; assay: Immunofluorescent analysis of uptake in transformed NMuMG cells; format: cell-based, murine; conditions: BSH 2 mM, NMuMG-HRas/shp53, NMuMG-HRas/shp53/YAP1 (Figure 4C)
Source text: For transformation of the NMuMG cells, we prepared virus particles of pTomo-HRas/shRNA-p53 (Vector plasmid was a kind gift from Dr. Dinorah Morvinski, Tel Aviv University), pTomo (Addgene, #26291), FUW-tetO-wtYAP (Addgene, #84009), and FUdeltaGW-rtTA (Addgene, #19780), and infected cells in the same manner as written above. After the infection of pTomo viruses (pTomo-HRas/shRNA-p53 was used for malignant transformation, with pTomo for a negative control), the cells were further treated with adenovirus harboring Cre recombinase (cat#ADV-005) (Cell Biolabs Inc., San Diego, CA, USA), to activate the HRas expression cassette. The transformation was confirmed by the acquisition of the spheroid-forming capacity and morphological change (epithelial to spindle form).
as §3

[3] = immunoprecipitation with 20 µM of BSH, BSH-3R, BSH-11R (Figure 7A)
[4] = lysate with or without 10 µg/mL RNase A, 1 h at room temperature (Figure 6B)

In the case of mercaptoundecahydrododecaborate [BSH], the “binding to eRF3” value (eRF3) is reported as “did not bind to BSH”, the “eIF4G binding, dependence on arginine length” value (eIF4G; [3]) is reported as “did not observe a significant difference” and the “RNA dependence of binding to eIF4G” value (eIF4G; [4]) is reported as “little eIF4G was pulled-down with BSH in the presence of RNA”. The “co-precipitation of CD44 protein with anti-BSH antibody” value (CD44 protein) was “failed to precipitate CD44”, the “passage through the plasma membrane” value (U251MG cells) was “could not” and the “RNA dependence of binding to eIF4A” value (eIF4A) was “did not bind to BSH in the presence or absence of RNA”. For the same substance, the “PABP1 binding, dependence on arginine length” value [1, 3] was “bound to BSH in an RNA-dependent manner”, the “RNA dependence of binding to PABP1” value [1, 4] was “bound to PABP1 in the presence of RNA” and the “binding to PABP1 (immunoprecipitation)” value ([1]; pre-cleaned U251 lysate, 20 µM (Figure 6A)) was “had a binding capacity with poly(A)-binding protein 1 (PABP1)”. The “BSH immunofluorescent signal in cells” value [2] was “did not show any signals in all types of cells”.
